Results from US9179674B2, “Macrocyclic picolinamide compounds with fungicidal activity” (DOW AGROSCIENCES LLC, priority 2013, dated 2015).
Like-named read-outs stand apart in the source and are kept apart here.

Columns and labels:
Format in all cases: in vivo
[1] = test system: Mycosphaerella graminicola; Anamorph: Septoria tritici; experiment: Leaf Blotch of Wheat fungicidal activity (SEPTTR); settings: Zymoseptoria tritici; for pest or weed control at 100 ppm: rate 100 ppm; for pest or weed control at 121.5 g/ha: rate 121.5 g/H
Summary of the method: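 Acetone solutions diluted with nine volumes of water containing 110 ppm Triton X-100, sprayed to run-off on first-leaf wheat seedlings (Yuma), inoculated with S. tritici before or after treatment. Plants held in dew chambers, then in a 20 °C greenhouse. Disease severity (0–100%) scored when untreated plants fully symptomatic; % control relative to untreated.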

Puccinia triticina = experiment: Wheat Brown Rust fungicidal activity (PUCCRT); settings: Puccinia triticina; for pest or weed control at 100 ppm: rate 100 ppm; for pest or weed control at 121.5 g/ha: rate 121.5 g/H
Summary of the method: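 Yuma wheat seedlings at first-leaf stage sprayed to run-off (acetone solution in water with 110 ppm Triton X-100) or track-sprayed as EC with 0.1% Trycol 5941; inoculated with P. triticina spores before or after treatment. Overnight dark dew at 22° C., then greenhouse 24° C.; disease severity 0–100% gives percent control vs untreated.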

Erysiphe cichoracearum = experiment: Powdery Mildew of Cucumber fungicidal activity (ERYSCI); settings: Golovinomyces cichoracearum, 24 h, 1 Day Protectant, read-out: Disease Control ERYSCI 1DP
Method: Technical grades of materials were dissolved in acetone, which were then mixed with nine volumes of water containing 110 ppm Triton X-100. The fungicide solutions were applied onto wheat seedlings using an automated booth sprayer to run-off. All sprayed plants were allowed to air dry prior to further handling. All fungicides were evaluated using the aforementioned method for their activity vs. all target diseases. Wheat leaf blotch and brown rust activity were also evaluated using track spray applications, in which case the fungicides were formulated as EC formulations, containing 0.1% Trycol 5941 in the spray solutions. Wheat plants (variety Yuma) were grown from seed in a greenhouse in 50% mineral soil/50% soil-less Metro mix until the first leaf was fully emerged, with 7-10 seedlings per pot. These plants were inoculated with an aqueous spore suspension of Septoria tritici either prior to or after fungicide treatments. After inoculation the plants were kept in 100% relative humidity (one day in a dark dew chamber followed by two to three days in a lighted dew chamber at 20° C.) to permit spores to germinate and infect the leaf. The plants were then transferred to a greenhouse set at 20° C. for disease to develop. When disease symptoms were fully expressed on the 1st leaves of untreated plants, infection levels were assessed on a scale of 0 to 100 percent disease severity. Percent disease control was calculated using the ratio of disease severity on treated plants relative to untreated plants. Evaluation of Fungicidal Activity: Powdery Mildew of Cucumber (Erysiphe cichoracearum; Bayer Code […]) Cucumber seedlings (variety Bush Pickle) were grown in soil-less Metro mix, with one plant per pot, and used in the test when 12 to 14 days old. Plants were inoculated with a spore suspension 24 hr following fungicide treatments. After inoculation the plants remained in the greenhouse set at 20° C. until disease was fully expressed. Fungicide formulation, application and disease assessment on the sprayed leaves followed the procedures as described in the Example A.

[2] = 24 h, 1 Day Protectant, read-out: Disease control SEPTTR 1DP
[3] = 72 h, 3 Day Curative, read-out: Disease control SEPTTR 3DC
[4] = 24 h, 1 Day Protectant, read-out: Disease control PUCCRT 1DP
[5] = 72 h, 3 Day Curative, read-out: Disease control PUCCRT 3DC

Structure (SMILES)	pest or weed control at 100 ppm [1, 2] [%]	pest or weed control at 121.5 g/ha [1, 2] [%]	pest or weed control at 100 ppm [1, 3] [%]	pest or weed control at 121.5 g/ha [1, 3] [%]	pest or weed control at 100 ppm (Puccinia triticina; [4]) [%]	pest or weed control at 121.5 g/ha (Puccinia triticina; [4]) [%]	pest or weed control at 100 ppm (Puccinia triticina; [5]) [%]	pest or weed control at 121.5 g/ha (Puccinia triticina; [5]) [%]	pest or weed control at 100 ppm (Erysiphe cichoracearum) [%]
COc1ccnc(C(=O)N[C@H]2COC[C@H](CCC(C)C)[C@@H](OCCCC(F)(F)F)[C@H](C)OC2=O)c1OCOC(C)=O [Compound F107]	80 to 100	80 to 100	80 to 100	80 to 100	80 to 100	80 to 100	80 to 100	80 to 100	80 to 100
COc1ccnc(C(=O)N[C@H]2COC[C@H](CCC(C)C)[C@@H](OC(=O)C3CC3)[C@H](C)OC2=O)c1OCOC(C)=O [Compound F108]	80 to 100	80 to 100	80 to 100	80 to 100	80 to 100	80 to 100	80 to 100	80 to 100	80 to 100
COc1ccnc(C(=O)N[C@H]2COC[C@H](Cc3ccc(Cl)cc3Cl)[C@@H](OC(=O)C(C)C)[C@H](C)OC2=O)c1OCOC(C)=O [Compound F110]	80 to 100	80 to 100	80 to 100	80 to 100	80 to 100	80 to 100	80 to 100	0 to 80	0 to 80
COc1ccnc(C(=O)N[C@H]2COC[C@H](CC3CCCC3)[C@@H](OC(=O)C(C)C)[C@H](C)OC2=O)c1OCOC(C)=O [Compound F114]	80 to 100	80 to 100	80 to 100	80 to 100	80 to 100	80 to 100	80 to 100	80 to 100	80 to 100
COc1ccnc(C(=O)N[C@H]2COC[C@H](Cc3ccc(C)cc3)[C@@H](OCC(C)C)[C@H](C)OC2=O)c1OCOC(C)=O [Compound F117]	80 to 100	80 to 100	80 to 100	80 to 100	80 to 100	80 to 100	80 to 100	80 to 100	80 to 100
CCCCCO[C@@H]1[C@@H](Cc2ccc(Cl)cc2Cl)COC[C@H](NC(=O)c2nccc(OC)c2OCOC(=O)COCC)C(=O)O[C@H]1C [Compound F122]	–	80 to 100	–	–	–	80 to 100	–	0 to 80	0 to 80
CCCCCO[C@@H]1[C@@H](Cc2ccc(Cl)cc2Cl)COC[C@H](NC(=O)c2nccc(OC)c2OC(=O)CCOC)C(=O)O[C@H]1C [Compound F123]	–	80 to 100	–	–	–	80 to 100	–	–	80 to 100
